Results from patent US10913746B2, “Substituted 4-phenylpiperidines, their preparation and use” (The Trustees of Columbia University in the City of New York, priority 2014, dated 2021).
Counter-ions that a name gives are not always drawn.

Experiments:
Abca4−/− mouse model = test: Bisretinoid accumulation in Abca4−/− mouse model; format: in vivo; settings: Example 112, present tense; 25 mg/kg for 12 weeks, mice starting at 17 weeks old
Description: (§1) Abca4−/− mice have A2E levels in the ˜15-19 pmoles/eye range at 17 weeks old. Mice, starting at 17 weeks old, were treated with 25 mg/kg of Compound 81 for 12 weeks.

serum RBP4 = serum RBP4 (Mus musculus (Mouse), UniProt Q00724); test: Serum RBP4 levels in Abca4−/− mice; format: in vivo; settings: Example 112, present tense; 25 mg/kg for 12 weeks, mice starting at 17 weeks old
Description: as §1

[1] = test system: subject afflicted with AMD or Stargardt disease; test: Administration to the eye of a subject afflicted with AMD or Stargardt disease; format: in vivo; settings: Example 113, present tense; administered to the eye
Description: An amount of a compound 81 is administered to the eye of a subject afflicted with AMD.
An amount of a compound 81 is administered to the eye of a subject afflicted with Stargardt disease.

RBP4 = RBP4 (Homo sapiens (Human), UniProt P02753); settings: cited from earlier work

Compound	serum RBP4 reduction (serum RBP4)	bisretinoid accumulation in Abca4−/− mouse model (Abca4−/− mouse model)	treatment of subject afflicted with AMD [1]	treatment of subject afflicted with Stargardt disease [1]	binding to RBP4, displacement of all-trans retinol (RBP4)
O=C(c1n[nH]c2c1CCNC2)N1CCC(c2cccc(F)c2C(F)(F)F)CC1 [Compound 30, (4-(3-Fluoro-2-(trifluoromethyl)phenyl)piperidin-1-yl)(4,5,6,7-tetrahydro-1H-pyrazolo[3,4-c]pyridin-3-yl)methanone Hydrochloride]	significant serum RBP4 reduction	inhibit bisretinoid accumulation	–	–	–
O=C(c1n[nH]c2c1CCNC2)N1CCC(c2ccc(F)c(F)c2C(F)(F)F)CC1 [Compound 34]	significant serum RBP4 reduction	inhibit bisretinoid accumulation	–	–	–
O=C(c1n[nH]c2c1CNCC2)N1CCC(c2ccc(F)c(F)c2C(F)(F)F)CC1 [Compound 36, (4-(3,4-Difluoro-2-(trifluoromethyl)phenyl)piperidin-1-yl)(4,5,6,7-tetrahydro-1H-pyrazolo[4,3-c]pyridin-3-yl)methanone Trifluoroacetic Acid Salt]	significant serum RBP4 reduction	inhibit bisretinoid accumulation	–	–	–
CC(=O)N1CCc2c(C(=O)N3CCC(c4ccc(F)c(F)c4C(F)(F)F)CC3)n[nH]c2C1 [Compound 81, 1-(3-(4-(3,4-Difluoro-2-(trifluoromethyl)phenyl)piperidine-1-carbonyl)-4,5-dihydro-1H-pyrazolo[3,4-c]pyridin-6(7H)-yl)ethanone]	–	–	effective to treat the subject	effective to treat the subject	–
CC1=C(/C=C/C(C)=C/C=C/C(C)=C/C(=O)Nc2ccc(O)cc2)C(C)(C)CCC1 [fenretinide, N-(4-hydroxy-phenyl)retinamide]	–	–	–	–	bind to RBP4

Further lines, with some results ahead:

serum RBP4 reduction (serum RBP4)	Compound	bisretinoid accumulation in Abca4−/− mouse model (Abca4−/− mouse model)	treatment of subject afflicted with AMD [1]	treatment of subject afflicted with Stargardt disease [1]	binding to RBP4, displacement of all-trans retinol (RBP4)
significant serum RBP4 reduction	O=C(c1n[nH]c2c1CNC2)N1CCC(c2ccc(F)c(F)c2C(F)(F)F)CC1 [Compound 38, (4-(3,4-Difluoro-2-(trifluoromethyl)phenyl)piperidin-1-yl)(1,4,5,6-tetrahydropyrrolo[3,4-c]pyrazol-3-yl)methanone Hydrochloride]	inhibit bisretinoid accumulation	–	–	–
significant serum RBP4 reduction	O=C(c1n[nH]c2c1CCNC2)N1CCC(c2cccc(F)c2Cl)CC1 [Compound 40, (4-(2-Chloro-3-fluorophenyl)piperidin-1-yl)(4,5,6,7-tetrahydro-1Hpyrazolo[3,4-c]pyridin-3-yl)methanone Hydrochloride]	inhibit bisretinoid accumulation	–	–	–
significant serum RBP4 reduction	O=C(c1n[nH]c2c1CNCC2)N1CCC(c2cccc(F)c2Cl)CC1 [Compound 42, (4-(2-Chloro-3-fluorophenyl)piperidin-1-yl)(4,5,6,7-tetrahydro-1Hpyrazolo[4,3-c]pyridin-3-yl)methanone Hydrochloride]	inhibit bisretinoid accumulation	–	–	–
